Measured values as given in PubChem BioAssay (NCI).
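Interpolation was linear, between the two tested concentrations surrounding the appropriate level; five concentrations were tested over 48 hours in 96-well plates. At the TGI there is no net growth.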

Tests used:
Assay in all cases: DTP human tumour cell line panel, 48 h
CAKI-1 renal = system: CAKI-1 renal
MOLT-4 leukemia = system: MOLT-4 leukemia
SK-MEL-5 melanoma = system: SK-MEL-5 melanoma
OVCAR-8 ovarian = system: OVCAR-8 ovarian
KM20L2 colon = system: KM20L2 colon
HCC-2998 colon = system: HCC-2998 colon
OVCAR-4 ovarian = system: OVCAR-4 ovarian
DLD-1 colon = system: DLD-1 colon
SK-MEL-28 melanoma = system: SK-MEL-28 melanoma
CCRF-CEM leukemia = system: CCRF-CEM leukemia
HCT-15 colon = system: HCT-15 colon
OVCAR-5 ovarian = system: OVCAR-5 ovarian
SK-OV-3 ovarian = system: SK-OV-3 ovarian
M14 melanoma = system: M14 melanoma
HT29 colon = system: HT29 colon
U251 CNS = system: U251 CNS
SN12C renal = system: SN12C renal
HOP-92 NSCLC = system: HOP-92 NSCLC
K-562 leukemia = system: K-562 leukemia
UACC-62 melanoma = system: UACC-62 melanoma
XF 498 CNS = system: XF 498 CNS
SF-295 CNS = system: SF-295 CNS
SR leukemia = system: SR leukemia
MALME-3M melanoma = system: MALME-3M melanoma
KM12 colon = system: KM12 colon
UO-31 renal = system: UO-31 renal
LXFL 529 NSCLC = system: LXFL 529 NSCLC
IGROV1 ovarian = system: IGROV1 ovarian
SNB-78 CNS = system: SNB-78 CNS
SK-MEL-2 melanoma = system: SK-MEL-2 melanoma
OVCAR-3 ovarian = system: OVCAR-3 ovarian
SNB-19 CNS = system: SNB-19 CNS
SW-620 colon = system: SW-620 colon
TK-10 renal = system: TK-10 renal
NCI-H23 lung = system: NCI-H23 lung
RXF 393 renal = system: RXF 393 renal
COLO 205 colon = system: COLO 205 colon
DMS 273 small cell lung = system: DMS 273 small cell lung
NCI-H522 lung = system: NCI-H522 lung
A498 renal = system: A498 renal
EKVX NSCLC = system: EKVX NSCLC
ACHN renal = system: ACHN renal
A549 NSCLC = system: A549 NSCLC
HCT-116 colon = system: HCT-116 colon
HL-60(TB) leukemia = system: HL-60(TB) leukemia
SF-268 CNS = system: SF-268 CNS
DMS 114 small cell lung = system: DMS 114 small cell lung
UACC-257 melanoma = system: UACC-257 melanoma
HOP-62 NSCLC = system: HOP-62 NSCLC
SF-539 CNS = system: SF-539 CNS
SNB-75 CNS = system: SNB-75 CNS
RPMI-8226 leukemia = system: RPMI-8226 leukemia
NCI-H460 lung = system: NCI-H460 lung
M19-MEL melanoma = system: M19-MEL melanoma
HOP-18 NSCLC = system: HOP-18 NSCLC
LOX IMVI melanoma = system: LOX IMVI melanoma
786-0 renal = system: 786-0 renal

SMILES: O=C(N/C(=C\c1ccc(Br)cc1)c1nc2ccccc2[nH]1)c1ccccc1
- TGI (CAKI-1 renal): 65.1 µM
- TGI (MOLT-4 leukemia): 67.4 µM
- TGI (SK-MEL-5 melanoma): 37 µM
- TGI (OVCAR-8 ovarian): 40 µM
- TGI (KM20L2 colon): 29.8 µM
- TGI (HCC-2998 colon): 30.9 µM
- TGI (OVCAR-4 ovarian): 36.5 µM
- TGI (DLD-1 colon): 59.8 µM
- TGI (SK-MEL-28 melanoma): 30.3 µM
- TGI (CCRF-CEM leukemia): 70.2 µM
- TGI (HCT-15 colon): 39.4 µM
- TGI (OVCAR-5 ovarian): 52 µM
- TGI (SK-OV-3 ovarian): 86.3 µM
- TGI (M14 melanoma): 32.8 µM
- TGI (HT29 colon): 36.4 µM
- TGI (U251 CNS): 33.5 µM
- TGI (SN12C renal): 32.7 µM
- TGI (HOP-92 NSCLC): 24.7 µM
- TGI (K-562 leukemia): 52.6 µM
- TGI (UACC-62 melanoma): 43.6 µM
- TGI (XF 498 CNS): 34.2 µM
- TGI (SF-295 CNS): 64.5 µM
- TGI (SR leukemia): 50.9 µM
- TGI (MALME-3M melanoma): 45.6 µM
- TGI (KM12 colon): 33.5 µM
- TGI (UO-31 renal): 33.7 µM
- TGI (LXFL 529 NSCLC): 30.9 µM
- TGI (IGROV1 ovarian): 66.6 µM
- TGI (SNB-78 CNS): 59.6 µM
- TGI (SK-MEL-2 melanoma): 30.9 µM
- TGI (OVCAR-3 ovarian): 46.2 µM
- TGI (SNB-19 CNS): 41.6 µM
- TGI (SW-620 colon): 29.6 µM
- TGI (TK-10 renal): 84.7 µM
- TGI (NCI-H23 lung): 36 µM
- TGI (RXF 393 renal): 30.4 µM
- TGI (COLO 205 colon): 41.1 µM
- TGI (DMS 273 small cell lung): 58.9 µM
- TGI (NCI-H522 lung): 29.8 µM

SMILES: CC(C)(C)C(=O)OCC1OC(N=[N+]=[N-])C(OC(=O)C(C)(C)C)C(OC(=O)C(C)(C)C)C1OC(=O)C(C)(C)C (stereo not given)
- TGI (A498 renal): > 100 µM
- TGI (CAKI-1 renal): > 100 µM
- TGI (MOLT-4 leukemia): > 100 µM
- TGI (SK-MEL-5 melanoma): > 100 µM
- TGI (OVCAR-8 ovarian): > 100 µM
- TGI (KM20L2 colon): > 100 µM
- TGI (HCC-2998 colon): > 100 µM
- TGI (OVCAR-4 ovarian): > 100 µM
- TGI (EKVX NSCLC): > 100 µM
- TGI (ACHN renal): > 100 µM
- TGI (DLD-1 colon): > 100 µM
- TGI (SK-MEL-28 melanoma): > 100 µM
- TGI (CCRF-CEM leukemia): > 100 µM
- TGI (HCT-15 colon): > 100 µM
- TGI (OVCAR-5 ovarian): > 100 µM
- TGI (SK-OV-3 ovarian): > 100 µM
- TGI (M14 melanoma): > 100 µM
- TGI (HT29 colon): > 100 µM
- TGI (U251 CNS): > 100 µM
- TGI (SN12C renal): > 100 µM
- TGI (HOP-92 NSCLC): > 100 µM
- TGI (K-562 leukemia): > 100 µM
- TGI (UACC-62 melanoma): > 100 µM
- TGI (XF 498 CNS): > 100 µM
- TGI (SF-295 CNS): > 100 µM
- TGI (A549 NSCLC): > 100 µM
- TGI (SR leukemia): > 100 µM
- TGI (HCT-116 colon): > 100 µM
- TGI (MALME-3M melanoma): > 100 µM
- TGI (KM12 colon): > 100 µM
- TGI (HL-60(TB) leukemia): > 100 µM
- TGI (UO-31 renal): > 100 µM
- TGI (LXFL 529 NSCLC): > 100 µM
- TGI (SF-268 CNS): > 100 µM
- TGI (DMS 114 small cell lung): > 100 µM
- TGI (UACC-257 melanoma): > 100 µM
- TGI (IGROV1 ovarian): > 100 µM
- TGI (SNB-78 CNS): > 100 µM
- TGI (HOP-62 NSCLC): > 100 µM
- TGI (SK-MEL-2 melanoma): > 100 µM
- TGI (OVCAR-3 ovarian): > 100 µM
- TGI (SNB-19 CNS): > 100 µM
- TGI (SW-620 colon): > 100 µM
- TGI (TK-10 renal): > 100 µM
- TGI (NCI-H23 lung): > 100 µM
- TGI (SF-539 CNS): > 100 µM
- TGI (RXF 393 renal): > 100 µM
- TGI (SNB-75 CNS): > 100 µM
- TGI (COLO 205 colon): > 100 µM
- TGI (RPMI-8226 leukemia): > 100 µM
- TGI (DMS 273 small cell lung): > 100 µM
- TGI (NCI-H460 lung): > 100 µM
- TGI (NCI-H522 lung): > 100 µM

SMILES: Cc1c2c(cc3c1C(=O)C(=O)C1=C3OC[C@@H]1C)C(C)(C)CCC2
- TGI (A498 renal): 59.6 µM
- TGI (M19-MEL melanoma): 6.68 µM
- TGI (CAKI-1 renal): > 100 µM
- TGI (MOLT-4 leukemia): 32 µM
- TGI (SK-MEL-5 melanoma): 26.1 µM
- TGI (OVCAR-8 ovarian): 52.5 µM
- TGI (KM20L2 colon): 44.5 µM
- TGI (HCC-2998 colon): 42.4 µM
- TGI (OVCAR-4 ovarian): 51.8 µM
- TGI (EKVX NSCLC): 58.7 µM
- TGI (ACHN renal): 38.3 µM
- TGI (DLD-1 colon): 59.5 µM
- TGI (SK-MEL-28 melanoma): 27.3 µM
- TGI (CCRF-CEM leukemia): 42 µM
- TGI (HCT-15 colon): 27.6 µM
- TGI (OVCAR-5 ovarian): 40.2 µM
- TGI (SK-OV-3 ovarian): 82.8 µM
- TGI (M14 melanoma): 26.9 µM
- TGI (HT29 colon): 32.5 µM
- TGI (U251 CNS): 34.4 µM
- TGI (SN12C renal): 34.6 µM
- TGI (HOP-92 NSCLC): 61.2 µM
- TGI (K-562 leukemia): 34.5 µM
- TGI (UACC-62 melanoma): 25.9 µM
- TGI (XF 498 CNS): 55.7 µM
- TGI (SF-295 CNS): 27.8 µM
- TGI (A549 NSCLC): 26.8 µM
- TGI (HOP-18 NSCLC): 32.3 µM
- TGI (SR leukemia): 50.2 µM
- TGI (HCT-116 colon): 26.7 µM
- TGI (MALME-3M melanoma): 29 µM
- TGI (KM12 colon): 24.7 µM
- TGI (HL-60(TB) leukemia): 26.9 µM
- TGI (UO-31 renal): 46.1 µM
- TGI (LXFL 529 NSCLC): 37.6 µM
- TGI (SF-268 CNS): 35.4 µM
- TGI (DMS 114 small cell lung): 31.9 µM
- TGI (UACC-257 melanoma): 28.4 µM
- TGI (IGROV1 ovarian): 49.8 µM
- TGI (HOP-62 NSCLC): 36.4 µM
- TGI (SK-MEL-2 melanoma): 21.2 µM
- TGI (OVCAR-3 ovarian): 34.9 µM
- TGI (SNB-19 CNS): 49.3 µM
- TGI (SW-620 colon): 28.4 µM
- TGI (LOX IMVI melanoma): 20.5 µM
- TGI (TK-10 renal): 56.7 µM
- TGI (NCI-H23 lung): 28.4 µM
- TGI (SF-539 CNS): 29.8 µM
- TGI (786-0 renal): 75.9 µM
- TGI (RXF 393 renal): 33.5 µM
- TGI (SNB-75 CNS): 41.9 µM
- TGI (COLO 205 colon): 20.4 µM
- TGI (DMS 273 small cell lung): 28.5 µM
- TGI (NCI-H460 lung): 28.1 µM

SMILES: COc1ccc2c(c1)CC[C@@H]1C2CC[C@](C)(C#N)C1CC#N (stereo not given in full)
- TGI (A498 renal): > 100 µM
- TGI (M19-MEL melanoma): > 100 µM
- TGI (MOLT-4 leukemia): > 100 µM
- TGI (KM20L2 colon): > 100 µM
- TGI (OVCAR-4 ovarian): > 100 µM
- TGI (ACHN renal): > 100 µM
- TGI (SK-MEL-28 melanoma): > 100 µM
- TGI (CCRF-CEM leukemia): > 100 µM
- TGI (OVCAR-5 ovarian): > 100 µM
- TGI (SK-OV-3 ovarian): > 100 µM
- TGI (M14 melanoma): > 100 µM
- TGI (HT29 colon): > 100 µM
- TGI (U251 CNS): > 100 µM
- TGI (HOP-92 NSCLC): > 100 µM
- TGI (K-562 leukemia): > 100 µM
- TGI (UACC-62 melanoma): > 100 µM
- TGI (SF-295 CNS): > 100 µM
- TGI (SR leukemia): > 100 µM
- TGI (HCT-116 colon): > 100 µM
- TGI (MALME-3M melanoma): > 100 µM
- TGI (KM12 colon): > 100 µM
- TGI (UO-31 renal): > 100 µM
- TGI (LXFL 529 NSCLC): > 100 µM
- TGI (SF-268 CNS): > 100 µM
- TGI (DMS 114 small cell lung): > 100 µM
- TGI (UACC-257 melanoma): > 100 µM
- TGI (IGROV1 ovarian): > 100 µM
- TGI (SNB-78 CNS): > 100 µM
- TGI (HOP-62 NSCLC): > 100 µM
- TGI (OVCAR-3 ovarian): > 100 µM
- TGI (SNB-19 CNS): > 100 µM
- TGI (NCI-H23 lung): > 100 µM
- TGI (786-0 renal): > 100 µM
- TGI (RXF 393 renal): > 100 µM
- TGI (SNB-75 CNS): > 100 µM
- TGI (COLO 205 colon): > 100 µM
- TGI (RPMI-8226 leukemia): > 100 µM
- TGI (NCI-H460 lung): > 100 µM
- TGI (NCI-H522 lung): > 100 µM
